Several values for one entry are separate records, joined by “and”; a condition that tells them apart may be missing. Equal entries are not always repeated. Where a SMILES comes first, the peptide text is derived from it. [ ]: non-standard residue; d: D form. The star is where a group is joined. Bip(2'-Et,4'-O(CH2)4N3) = CCc1cc(OCCCCN=[N+]=[N-])ccc1-c1ccc(C[C@H](N)C(=O)O)cc1; Malonyl(2,2-Me2,histaminyl) = CC(C)(C(=O)NCCc1cnc[nH]1)C(=O)*; Nva(5-(3,5-Me2Ph)) = Cc1cc(C)cc(CCC[C@H](N)C(=O)O)c1; Ala(1H-tetrazol-5-yl) = N[C@@H](Cc1nnn[nH]1)C(=O)O; αMePhe(2-F) = C[C@](N)(Cc1ccccc1F)C(=O)O
Experiments:
HEK293/CRE-Luc cells [1] = assay: Luciferase reporter assay, HEK293/CRE-Luc cells without GLP1R (Example 17); assay type: cell-based, human
Summary of the method: (§1)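 HEK293 cells carrying a CRE-driven firefly luciferase reporter were exposed to 3-fold serial dilutions of payloads or linker-payloads (12 points, 0.2% DMSO final) for 4–6 h, then luminescence was read. EC50 came from a four-parameter logistic fit; S/N is top RLU over untreated wells, and relative potency and S/N are referenced to M2361.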

human GLP1R [2] = biological target: T1, human GLP1R (Homo sapiens, UniProt P43220); assay: CRE-Luc cAMP reporter assay, HEK293/CRE-Luc/hGLP1R (Example 24); assay type: cell-based; parameters: engineered to express full-length human GLP1R, cynomolgus GLP1R; expressed in transfected cells; host or cells: HEK293/CRE-Luc; details: HEK293, read-out: HEK293/CRE-Luc/hGLP1R Emax (% GLP-1)
From the text: To test the activity of GLP1R agonist payloads, GLP1R agonist linker-payloads (LPs), and anti-GLP1R antibody-tethered ligands (ATLs) of the invention, a cell-based cAMP responsive luciferase reporter assay was developed. To generate the assay cell line, the firefly luciferase gene was placed under the control of a cAMP response element (CRE) located upstream of a minimal promoter and transfected into HEK293 cells and referred to herein as HEK293/CRE-Luc cells. HEK293/CRE-Luc cells were then engineered to express full-length human GLP1R (HEK293/CRE-Luc/hGLP1R), cynomolgus GLP1R (HEK293/CRE-Luc/mfGLP1R), or mouse GLP1R (HEK293/CRE-Luc/mGLP1R).
Serial dilutions of free payload and linker payloads (LP) were performed in 100% DMSO (ATCC, #4-X-5), followed by 1:100 dilution in assay media. Test articles were added to cells (1:5 dilution) with the last well in each serial dilution series serving as a blank control containing only assay media for antibodies and ATLs or assay media with 0.2% DMSO for payloads and LPs. After a 5-hour incubation at 37° C., luciferase activity was determined by addition of ONE-Glo reagent (Promega, #E6130) followed by measurement of relative light units (RLUs) on an EnVision Plate Reader (Perkin Elmer).
(§2) EC50 values for luminescence assays were determined using a four-parameter logistic equation over a 12-point dose response curve (GraphPad Prism).

human GLP1R [3] = biological target: T1, human GLP1R; assay: b-arrestin 2 recruitment assay, PathHunter CHO/b-arrestin 2/hGLP1R cells; assay type: cell-based; details: read-out: CHO/b-arrestin 2/hGLP1R Emax (% GLP-1)
Procedure: The b-arrestin 2 recruitment assay was performed following manufacter's instructions (Eurofins DiscoverX, #93-0300E2CP0M), with minor modifications. […] Serial dilutions of free payload and LP were performed in 100% DMSO, followed by 1:100 dilution in assay media. Test articles were added to cells (1:5 dilution) with the last well in each serial dilution series serving as a blank control containing only assay media for antibodies and ATLs or assay media with 0.2% DMSO for payload and LP. After a 90-minute incubation at 37° C., PathHunter Detection Reagent (Eurofins DiscoverX, #93-0300E2CP0M) was added to the wells followed by a 1-hour incubation at room temperature. RLUs were measured on EnVision Plate Reader (Perkin Elmer).
as §2

human GLP1R [4] = biological target: T1, human GLP1R; assay: Luciferase reporter assay, HEK293/CRE-Luc/hGLP1R (Example 17); assay type: cell-based; parameters: engineered to express full-length human GLP1R, cynomolgus GLP1R; expressed in transfected cells; host or cells: HEK293/CRE-Luc; details: HEK293/CRE-Luc/hGLP1R
Summary of the method: as §1

[5] = Plasma stability of payloads and linker-payloads, human plasma; assay type: in vitro ADME; details: plasma, pH 7.4, tested time A (1 day per footnote), 2 μM, 37° C., read-out: Human plasma stability assay T½ (converted)
Summary of the method: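 Pooled plasma, pH adjusted to 7.4±0.1 where needed, spiked to 2 μM compound (duplicate) and incubated at 37 °C. At each time point, protein was precipitated with ACN/MeOH stop solution containing internal standards; remaining compound quantified in supernatant by LC-MS/MS.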

human GLP1R [6] = biological target: T1, human GLP1R; assay: Human GLP1R cAMP accumulation assay; assay type: cell-based; parameters: HEK293 cells over-expressing full length human GLP-1R were utilized; expressed in transfected cells; host or cells: HEK293 (HEK293/hGLP1R); details: HEK293/hGLP1R cells; Table 4; read-out: cAMP EC50
Summary of the method: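 cAMP accumulation measured after 30 min at 23° C, with 500 μM IBMX in HEPES-buffered HBSS plus 0.1% BSA, in HEK293 cells expressing full-length hGLP-1R. Levels read by D2-cAMP/antibody immunoassay via standard curve, scaled between low and high controls. EC50 fitted four-parameter over a 10-point curve.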

HEK293/CRE-Luc cells [7] = assay: Luciferase reporter assay, HEK293/CRE-Luc cells without hGLP1R (Example 11); assay type: cell-based, human; details: Experiment A
Summary of the method: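 Counter-screen in HEK293 cells carrying CRE-driven firefly luciferase without hGLP1R; 3-fold serial dilutions of payloads or linker-payloads at 0.2% final DMSO, 4–6 h.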

human GLP1R [8] = biological target: T1, human GLP1R; assay: CRE-luciferase reporter assay, HEK293/Myc-hGLP1R/Cre-Luc (Example 9); assay type: cell-based; parameters: engineered to express full-length human GLP1R, cynomolgus GLP1R; expressed in transfected cells; host or cells: HEK293/CRE-Luc; details: Table 9; 5.5 h; read-out: HEK293/Myc-hGLP1R/Cre-Luc EC50
Procedure: To test the activity of GLP1R agonist payloads and GLP1R agonist linker-payloads (LPs) in vitro, a cell-based cAMP responsive luciferase reporter assay was developed.
Cells were incubated overnight at 37° C. in 5% CO2. […] Plates were incubated for 5.5 h at 37° C. in 5% CO2. For end-point measurement, 100 μL/well of One-Glo reagent (Promega, #E6051) was added and plates were kept at room temperature for 5-10 minutes. Luciferase activity was measured on Envision Multilabel Plate Reader (Perkin Elmer) in Luminescent mode. The relative light units (RLU) values were obtained and the results were analyzed using nonlinear regression with GraphPad Prism software (GraphPad).

human GLP1R [9] = biological target: T1, human GLP1R; assay: Luciferase reporter assay, HEK293/CRE-Luc/hGLP1R cells (Example 11); assay type: cell-based; parameters: engineered to express full-length human GLP1R, cynomolgus GLP1R; expressed in transfected cells; host or cells: HEK293/CRE-Luc
[10] = ATDCs and references (Table 27)
[11] = relative to M2361 of the same experiment

T1 sequence (P43220 24-463): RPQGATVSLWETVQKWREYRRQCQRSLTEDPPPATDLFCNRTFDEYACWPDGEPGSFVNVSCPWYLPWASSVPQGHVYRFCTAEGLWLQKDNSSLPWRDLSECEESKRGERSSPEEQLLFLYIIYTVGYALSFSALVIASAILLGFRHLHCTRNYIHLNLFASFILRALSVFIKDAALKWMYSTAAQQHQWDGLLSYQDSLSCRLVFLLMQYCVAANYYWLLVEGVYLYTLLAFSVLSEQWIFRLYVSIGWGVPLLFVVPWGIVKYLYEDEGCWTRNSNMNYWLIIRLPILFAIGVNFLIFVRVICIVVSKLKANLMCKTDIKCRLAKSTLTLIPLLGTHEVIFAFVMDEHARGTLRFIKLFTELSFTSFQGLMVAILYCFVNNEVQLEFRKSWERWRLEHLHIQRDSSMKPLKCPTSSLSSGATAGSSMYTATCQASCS

SMILES: CCc1cc(OCCCCN=[N+]=[N-])ccc1-c1ccc(C[C@H](NC(=O)[C@H](CC(=O)O)NC(=O)[C@H](CO)NC(=O)[C@@H](NC(=O)[C@](C)(Cc2ccccc2F)NC(=O)[C@@H](NC(=O)CNC(=O)[C@H](Cc2nn[nH]n2)NC(=O)C(C)(C)C(=O)NCCc2cnc[nH]2)[C@@H](C)O)[C@@H](C)O)C(=O)N[C@@H](CCCc2cc(C)cc(C)c2)C(N)=O)cc1 [M2361] ({Malonyl(2,2-Me2,histaminyl)}-[Ala(1H-tetrazol-5-yl)]GT[αMePhe(2-F)]TSD[Bip(2'-Et,4'-O(CH2)4N3)][Nva(5-(3,5-Me2Ph))]-NH2)
- S/N (HEK293/CRE-Luc cells [1]; HEK293/CRE-Luc cells without hGLP1R, ATDCs and references (Table 27)): 1.3
- EC50 (HEK293/CRE-Luc cells [1]; HEK293/CRE-Luc cells without hGLP1R, ATDCs and references (Table 27), read-out: EC50): > 20 nM
- S/N (HEK293/CRE-Luc cells [1]; HEK293/CRE-Luc cells without hGLP1R, payloads and linker-payloads): 1.5 and 1.3
- EC50 (HEK293/CRE-Luc cells [1]; Table 28, reporter cells without GLP1R, read-out: HEK293/CRE-Luc EC50): > 200 nM
- EC50 (HEK293/CRE-Luc cells [1]; Table 29, reporter cells without GLP1R, read-out: HEK293/CRE-Luc EC50): > 30 nM
- Emax (human GLP1R [2]): 95.8%
- Emax (human GLP1R [3]): 107%
- Relative Potency (% M2361 EC50) (human GLP1R [4]; [10]): 100.0%
- Relative Signal:Noise (% M2361) (human GLP1R [4]; [10]): 100.0%
- S/N (human GLP1R [4]; [10]): 64.3
- Relative Potency (% M2361 EC50) (human GLP1R [4]; [11]): 100.0%
- Relative Signal:Noise (% M2361) (human GLP1R [4]; [11]): 100.0%

SMILES: CCc1cc(OCCCCN=[N+]=[N-])ccc1-c1ccc(C[C@H](NC(=O)[C@H](CC(=O)O)NC(=O)[C@H](CO)NC(=O)[C@@H](NC(=O)[C@](C)(Cc2ccccc2F)NC(=O)[C@@H](NC(=O)CNC(=O)[C@H](Cc2nn[nH]n2)NC(=O)C(C)(C)C(=O)NCCc2cnc[nH]2)[C@@H](C)O)[C@@H](C)O)C(=O)N[C@@H](CCCc2cc(C)cc(C)c2)C(N)=O)cc1 [P8] ({Malonyl(2,2-Me2,histaminyl)}-[Ala(1H-tetrazol-5-yl)]GT[αMePhe(2-F)]TSD[Bip(2'-Et,4'-O(CH2)4N3)][Nva(5-(3,5-Me2Ph))]-NH2)
- half-life at 2 µM [5]: > 57.8 h
- EC50 (human GLP1R [6]): 0.497 nM
- EC50 (HEK293/CRE-Luc cells [7]; Table 11, no hGLP1R expression): > 200 nM
- HEK293/CRE-LUC S/N (HEK293/CRE-Luc cells [7]; Table 11, no hGLP1R expression): 1.5
- EC50 (HEK293/CRE-Luc cells [7]; Table 12): > 20 nM
- HEK293/CRE-Luc S/N (HEK293/CRE-Luc cells [7]; Table 12): 1.3
- EC50 (human GLP1R [8]): 0.0076 nM
- EC50 (human GLP1R [9]; Table 11, Experiment A): 0.00531 nM
- HEK293/CRE-LUC/hGLP1R Relative Potency (% P8 EC50) (human GLP1R [9]; Table 11, Experiment A): 100.0%
- HEK293/CRE-LUC/hGLP1R S/N (human GLP1R [9]; Table 11, Experiment A): 65.8
- EC50 (human GLP1R [9]; Table 11, Experiment B): 0.02 nM
- HEK293/CRE-LUC/hGLP1R Relative Potency (% P8 EC50) (human GLP1R [9]; Table 11, Experiment B): 100.0%
- HEK293/CRE-LUC/hGLP1R S/N (human GLP1R [9]; Table 11, Experiment B): 327.9
- EC50 (human GLP1R [9]; Table 11, Experiment D): 0.0273 nM
- HEK293/CRE-LUC/hGLP1R Relative Potency (% P8 EC50) (human GLP1R [9]; Table 11, Experiment D): 100.0%
- HEK293/CRE-LUC/hGLP1R Relative Signal:Noise (% P8) (human GLP1R [9]; Table 11, Experiment D): 100.0%
- HEK293/CRE-LUC/hGLP1R S/N (human GLP1R [9]; Table 11, Experiment D): 235.9
- EC50 (human GLP1R [9]; Table 12, Experiment A): 0.0162 nM
- HEK293/CRE-Luc/hGLP1R Relative Potency (% P8 EC50) (human GLP1R [9]; Table 12, Experiment A): 100.0%
- HEK293/CRE-Luc/hGLP1R Relative Signal:Noise (% P8) (human GLP1R [9]; Table 12, Experiment A): 100.0%
- HEK293/CRE-Luc/hGLP1R S/N (human GLP1R [9]; Table 12, Experiment A): 64.3
- EC50 (human GLP1R [9]; Table 12, Experiment D): 0.0273 nM
- HEK293/CRE-Luc/hGLP1R Relative Potency (% P8 EC50) (human GLP1R [9]; Table 12, Experiment D): 100.0%
- HEK293/CRE-Luc/hGLP1R Relative Signal:Noise (% P8) (human GLP1R [9]; Table 12, Experiment D): 100.0%
- HEK293/CRE-Luc/hGLP1R S/N (human GLP1R [9]; Table 12, Experiment D): 235.9
